Structures can show the parent of a compound that is named as a salt.

For orientation: Ki means the dissociation constant of the complex between target and ligand, obtained from inhibition or displacement. The ED50 is the midpoint of the dose-response relation. A higher ED50 goes with weaker potency.

The target in one test is T1, human dopamine D2L receptor (Human D2Long Receptors) (Homo sapiens, UniProt P14416).
T1 construct: expressed in transfected cells
T1 sequence (P14416 whole entry): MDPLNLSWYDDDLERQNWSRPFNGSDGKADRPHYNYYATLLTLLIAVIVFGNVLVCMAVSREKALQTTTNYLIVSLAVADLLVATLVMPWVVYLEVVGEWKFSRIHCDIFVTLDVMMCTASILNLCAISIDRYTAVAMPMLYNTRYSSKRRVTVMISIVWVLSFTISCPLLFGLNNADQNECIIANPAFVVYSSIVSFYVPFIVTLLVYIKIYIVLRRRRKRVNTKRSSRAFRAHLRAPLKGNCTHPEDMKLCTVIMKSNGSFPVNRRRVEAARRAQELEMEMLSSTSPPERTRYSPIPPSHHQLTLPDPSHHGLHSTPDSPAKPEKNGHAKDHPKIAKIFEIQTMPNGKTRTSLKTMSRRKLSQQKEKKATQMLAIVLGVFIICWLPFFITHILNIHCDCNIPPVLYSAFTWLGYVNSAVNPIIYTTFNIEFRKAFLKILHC
As to the kind of experiment: Human dopamine D2L receptor binding assay ([3H]N-methyl spiroperidol displacement).
Conditions: not given
As for the experimental part:
A single high expressing clonal cell line was isolated and membranes from this cell line were used for receptor binding assays. […] The incubation buffer contained: 50 mM Tris, 120 mM NaCl; 5 mM Kcl; 2 mM CaCl2; 1 mM MgCl2; pH 7.7). […] Incubations were performed at 37° C. in a shaking water bath for 30 min, terminated by rapid filtration through Whatman GF/B filters (presoaked in 0.3% polyethyleneimine), and counted in a liquid scintillation counter. Non-specific binding was defined as that remaining in the presence of 3 μM eticlopride. […] The percent inhibition at each drug concentration was the average of duplicate determinations. […] Cheng-Prisoff determination (Ki's) are performed using Prism software.
In turn, `O=CNC[C@@H]1O[C@H](C2CCN(CCc3cccs3)CC2)Cc2c1ccc1c2OC2(CCCCC2)O1` (relative stereo) [Example 24, cis-N-[5,6-(cyclohexylidinedioxy)-3,4-dihydro-3-[1(2-(thiophen-2-yl)ethyl)-4-piperidinyl]-1H-2-benzofuran-1-ylmethyl]formamide] came in with a Ki of 506 nM.
The same measure, in the same setting: in the case of `COc1cc(C(C)=O)ccc1OCCCN1CCC([C@@H]2Cc3c(ccc4c3OC3(CCCCC3)O4)[C@H](CNC=O)O2)CC1` (relative stereo) [Example 30, cis-N-[3-[1-[3-(4-acetyl-2-methoxyphenoxy)propyl]-4-piperidinyl]-5,6-(cyclohexylidenedioxy)-3,4-dihydro-1H-2-benzopyran-1-ylmethyl]formamide oxalate Trihydrate] it was 857 nM.

The test is the same for the next values; noted with them: Table 2; [3H]N-methyl spiroperidol 0.4 nM; CHO membranes; 37° C., 30 min; pH 7.7; read-out: Ki.
For the compound `NC[C@@H]1O[C@H](C2CCN(CCc3ccccc3)CC2)Cc2c1ccc(O)c2O` (relative stereo) [Example 4D, cis-1-(Aminomethyl)-3,4-dihydro-3-[1-(2-phenylethyl)-4-piperidinyl]-1H-2-benzopyran-5,6-diol Dihydrobromide Sesquihydrate], the Ki turned out to be 1090 nM.
With `COc1ccc(CCN2CCC([C@@H]3Cc4c(ccc(O)c4O)[C@H](CN)O3)CC2)cc1` (relative stereo) [Example 11, cis-1-(Aminomethyl)-3,4-dihydro-3-[1-[2-(4-methoxyphenyl)ethyl]-4-piperidinyl]-1H-2-benzopyran-5,6-diol Dihydrochloride], the Ki was found to be 1200 nM.
Still for that read-out and setting: next, `NC[C@@H]1O[C@H](C2CCN(CCc3ccc(Cl)cc3)CC2)Cc2c1ccc(O)c2O` (relative stereo) [Example 14, cis-1-(Aminomethyl)-3-[1-[2-(4-chlorophenyl)ethyl]-3,4-dihydro-4-piperidinyl]-1H-2-benzopyran-5,6-diol dihydrochloride]: 505 nM.
Same read-out and setting: in the case of `CNC[C@@H]1O[C@H](C2CCN(CCc3ccc(Cl)cc3)CC2)Cc2c1ccc(O)c2O` (relative stereo) [Example 15, cis-3-[1-[2-(4-Chlorophenyl)ethyl]-4-piperidinyl]-3,4-dihydro-1-(N-methylaminomethyl)-1H-2-benzopyran-5,6-diol dihydrochloride hemihydrate] it was 413 nM; in that of `NC[C@@H]1O[C@H](C2CCN(CCOc3ccccc3)CC2)Cc2c1ccc(O)c2O` (relative stereo) [Example 23, cis-1-(Aminomethyl)-3,4-dihydro-3-[1(2-phenoxyethyl)-4-piperidinyl]-1H-2-benzopyran-5,6-diol dihydrochloride 0.4 hydrate], 500 nM.
As for `NC[C@@H]1O[C@H](C2CCN(CCCC(c3ccc(F)cc3)c3ccc(F)cc3)CC2)Cc2c1ccc(O)c2O` (relative stereo) [Example 29, cis-1-(Aminomethyl)3-[1-[4,4-bis-(4-fluorophenyl)butyl]-4-piperidinyl]-1H-2-benzopyran-5,6-diol Dihydrochloride Dihydrate], the inhibition constant (Ki) stood at 91.8 nM.
On the same count and under the same terms, in the case of `COc1cc(C(C)=O)ccc1OCCCN1CCC([C@@H]2Cc3c(ccc(O)c3O)[C@H](CN)O2)CC1` (relative stereo) [Example 31, cis-1-(3-[3-[4-[1-(Aminomethyl)-3,4-dihydro-5,6-dihydroxy-1H-2-benzopyran-3-yl]-1-piperidinyl]propoxy]-3-methoxyphenyl)ethanone Dihydrochloride Dihydrate] it was 1100 nM; in that of `NC[C@@H]1O[C@H](C2CCNCC2)Cc2c1ccc(O)c2O` (relative stereo) [Example 33, cis-1-(Aminomethyl)-3,4-dihydro-3-(4-piperidinyl)-1H-2-benzopyran-5,6-diolDihydrochloride 0.3 Hydrate], 3900 nM; in that of `NC[C@@H]1O[C@H](C2CCN(CCCn3c(=O)[nH]c4ccccc43)CC2)Cc2c1ccc(O)c2O` (relative stereo) [Example 34, cis-1-[3-[4-(1-Aminomethyl-3,4-dihydro-5,6-dihydroxy-1H-2-benzopyran-3-yl)-1-piperidinyl]propyl]-1,3-dihydrobenzimidazol-2-one Dihydrochloride 1.33 Hydrate], 432 nM.
Consider `NC[C@@H]1O[C@H](C2CCN(CCCC(c3ccc(F)cc3)c3ccc(F)cc3)CC2)Cc2c1ccc1c2OC2(CCCCC2)O1` (relative stereo) [Example 39, cis-1-Aminomethyl-5,6-(cyclohexylidenedioxy)-3,4-dihydro-3-[1-[4,4-bis(4-fluorophenyl)butyl]-4-piperidinyl]-1H-2-benzopyran Dioxalate 2.4 Hydrate], for which the Ki is 153 nM.

Another test deals with apomorphine-induced climbing in CD-1 male mice. Briefly: Climbing mouse assay (CMA), antagonism of apomorphine-induced climbing. The test is classed as in vivo. Particulars: ip, Table I, compounds of the invention, i.p. 30 min before apomorphine 1.5 mg/kg s.c. How it is done:
CLIMBING MOUSE ASSAY (CMA)
This test may be used as to identify compounds useful in treating psychosis. Costall, B. et al, Eur. J. Pharm. 50: 39-50 (1978); Protais, P., et al., Psychopharmacology 50:1-6 (1976). […] This effect of apomorphine is antagonized by the D2 receptor antagonist.
CD-1 male mice (20-30 grams) are assigned to groups of 8 and individually placed in wire mesh stick cages and allowed one hour for adaptation to new environment. Apomorphine is injected at 1.5 mg/kg subcutaneously which is a dose which causes climbing in all subjects for thirty minutes. Test compounds are administered intraperitoneally thirty minutes prior to the apomorphine administration at a dose of 20 mg/kg.
For evaluation of climbing, three readings are taken at ten, twenty and thirty minutes after apomorphine administration according to the following scale:
4 paws on bottom (no climbing) 0
2 paws on the wall (rearing) 1
4 paws on the wall (full climb) 2
The climbing scores are individually totaled (maximal score: 6 per mouse over three readings) and total score of the control (vehicle intraperitoneally (ip) and apomorphine subcutaneous) is set to 100%. ED50 values with 95% confidence limits calculated by a linear regression analysis of some of the compounds of the present invention as well as a standard antipsychotic agent (clozapine) are presented in Table 1.
`NC[C@@H]1O[C@H](C2CCN(CCc3ccccc3)CC2)Cc2c1ccc(O)c2O` (relative stereo) [Example 4D, cis-1-(Aminomethyl)-3,4-dihydro-3-[1-(2-phenylethyl)-4-piperidinyl]-1H-2-benzopyran-5,6-diol Dihydrobromide Sesquihydrate]: the median effective dose (ED50) turned out to be 8.1 mg/kg.

Source of the values: patent US6004982A, “4-piperidinyl) H-2-benzopyran derivatives useful as antipsychotic agents” (Hoechst Marion Roussel, Inc., priority 1998, dated 1999).
